Read-outs that look alike come from different tables or passages of the source.
Assays:
Assay in all cases: greenhouse post-emergence herbicidal test
AMARE = format: in vivo, Amaranthus retroflexus
Method: (§1) The culture containers used were plastic pots containing medium loamy sand with approximately 4.6% of humus and 69.9% sand as substrate. The seeds of the test plants were sown separately for each species.
(§2) For the post-emergence treatment, the test plants were grown to a plant height of from 1 to 15 cm, depending on the plant habit, and only then treated with the active compounds which had been suspended or emulsified in water. To this end, the test plants were either sown directly, and grown in the same containers, or they were first grown separately as seedlings and transplanted into the test containers a few days prior to treatment.
(§3) Depending on the species, the plants were kept at 10-25° C. and 20-35° C., respectively.
(§4) The test period extended over 1 to 3 weeks. During this time, the plants were tended and their response to the individual treatments was evaluated 20 days after treatment except mentioned otherwise.
(§5) Evaluation was carried out using a scale from 0 to 100. 100 means no emergence of the plants, or complete destruction of at least the above-ground parts, and 0 means no damage or normal course of growth.
(§6) The respective stated components A and B, and, if appropriate, C, were formulated as a 10% by weight strength emulsion concentrate and, with addition of the amount of solvent system, introduced into the spray liquor used for applying the active compound. In the examples, the solvent used was water.
(§7) In the examples below, using the method of S. R. Colby (1967) “Calculating synergistic and antagonistic responses of herbicide combinations”, Weeds 15, p. 22 ff., the value E, which is expected if the activity of the individual active compounds is only additive, was calculated. E=X+Y−(X·Y/100)

AMBEL = format: in vivo, Ambrosia artemisiifolia; parameters: key: rating on a scale from 0 to 100
Summary of the method: (§8)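 Each species was sown separately, grown to a height of 1 to 15 cm and then sprayed with water-dispersed components A, B and where relevant C. Growth conditions were 10-25° C or 20-35° C, and percent damage was recorded at 20 days.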

ECHCG = format: in vivo, Echinochloa crus-galli; parameters: key to herbicidal activity against ECHCG found / herbicidal activity against ECHCH found: scale 0 to 100; conditions: post emergence
Summary of the method: as §8

GERPU = format: in vivo, Geranium pusillum; conditions: application rate a.i.: I.1 31.25 g/ha
Method: as §1, §2, §3, §4, §5, §6, §7

LOLMU = format: in vivo, Lolium multiflorum
Method: as §1, §2, §3, §4, §5, §6, §7

[1] = a.i. g/ha: I.1 20.8, B.192 62.5, 20 days after treatment
[2] = a.i. g/ha: I.1 62.5, B.67 62.5, 20 days after treatment

O=C(O)c1cc(C2CC2)nc2onc(C3CC3)c12 [I.1]
herbicidal activity against AMARE found (AMARE; a.i. g/ha: I.1 15.6, B.190 62.5, 20 days after treatment): 30%
herbicidal activity against AMARE found (AMARE; [1]): 70%
herbicidal activity against AMARE found (AMARE; a.i. g/ha: I.1 31.25, B.190 62.5, 20 days after treatment): 35%
herbicidal activity against AMARE found (AMARE; a.i. g/ha: I.1 31.25, B.76 225, 20 days after treatment): 90%
herbicidal activity against AMARE found (AMARE; a.i. g/ha: I.1 31.25, bentazon Na 125, 20 days after treatment): 35%
herbicidal activity against AMBEL found (AMBEL; 31.25 g/ha a.i.): 85
herbicidal activity against AMBEL found (AMBEL; I.1 alone 125 g/ha a.i.): 65
herbicidal activity against AMBEL found (AMBEL; [1]): 30%
herbicidal activity against AMBEL found (AMBEL; application rate a.i.: I.1 31.25 g/ha, B.100 (isoxaflutole) 12.5 g/ha, alone or as mixture (composition 1.100)): 90
herbicidal activity against AMBEL found (AMBEL; application rate a.i.: I.1 31.25 g/ha, B.139 (pyroxasulfone) 12.5 g/ha, alone or as mixture (composition 1.139)): 65
herbicidal activity against AMBEL found (AMBEL; application rate a.i.: I.1 31.25 g/ha, B.84 (paraquat-dichloride) 17.5 g/ha, alone or as mixture (composition 1.84)): 65
herbicidal activity against AMBEL found (AMBEL; application rate a.i.: I.1 62.5 g/ha, B.100 (isoxaflutole) 12.5 g/ha, alone or as mixture (composition 1.100)): 90
herbicidal activity against AMBEL found (AMBEL; applied alone at 31.25 g/ha a.i.): 75
herbicidal activity against AMBEL found (AMBEL; single active, 15.62 g/ha a.i.): 0
herbicidal activity against AMBEL found (AMBEL; single active, 15.625 g/ha a.i.): 0
pest or weed control at 31.25 g/ha (ECHCG; Echinochloa crus-galli, post-emergence, 480 h, I.1 alone 31.25 g/ha a.i., read-out: herbicidal activity against ECHCG found): 0%
pest or weed control at 62.5 g/ha (ECHCG; Echinochloa crus-galli, post-emergence, 480 h, I.1 alone 62.5 g/ha a.i., read-out: herbicidal activity against ECHCG found): 45%
pest or weed control at 31.25 g/ha (ECHCG; Echinochloa crus-galli, post-emergence, 480 h, 31.25 g/ha a.i., read-out: herbicidal activity against ECHCG found): 0%
pest or weed control at 31.25 g/ha (ECHCG; Echinochloa crus-galli, post-emergence, 480 h, I.1 31.25 g/ha a.i., read-out: herbicidal activity against ECHCG found): 70%
pest or weed control at 15.62 g/ha (ECHCG; Echinochloa crus-galli, post-emergence, 480 h, single active, 15.62 g/ha a.i., read-out: herbicidal activity against ECHCG found): 0%
pest or weed control at 31.25 g/ha (ECHCG; Echinochloa crus-galli, post-emergence, 480 h, single active, 31.25 g/ha a.i., read-out: herbicidal activity against ECHCG found): 10%
herbicidal activity against ECHCG found (ECHCG; I.1 15.62 g/ha, B.167 125 g/ha a.i.): 0
herbicidal activity against ECHCG found (ECHCG; I.1 15.62 g/ha, B.95 1 g/ha a.i.): 10
herbicidal activity against ECHCG found (ECHCG; I.1 31.25 g/ha, B.103 7.5 g/ha a.i.): 10
herbicidal activity against ECHCG found (ECHCG; I.1 31.25 g/ha, B.167 125 g/ha a.i.): 10
herbicidal activity against ECHCG found (ECHCG; I.1 62.5 g/ha, B.95 2 g/ha a.i.): 55
herbicidal activity against ECHCH found (ECHCG; I.1 125 g/ha a.i.): 85
herbicidal activity against ECHCG found (ECHCG; a.i. g/ha: I.1 20.8, B.67 62.5, 20 days after treatment): 30%
herbicidal activity against ECHCG found (ECHCG; [2]): 65%
herbicidal activity against ECHCG found (ECHCG; a.i. g/ha: I.1 62.5, B.79 25, 20 days after treatment): 65%
herbicidal activity against ECHCG found (ECHCG; application rate a.i.: I.1 31.25 g/ha, B.40 (imazethapyr) 7.5 g/ha, alone or as mixture (composition 1.40)): 0
herbicidal activity against ECHCG found (ECHCG; application rate a.i.: I.1 250 g/ha, B.193 15 g/ha, alone or as mixture (composition 1.193)): 95
herbicidal activity against GERPU, found (GERPU; B.139 (pyroxasulfone) 12.5 g/ha, alone or as mixture (composition 1.139)): 80
herbicidal activity against GERPU, found (GERPU; B.139 (pyroxasulfone) 25 g/ha, alone or as mixture (composition 1.139)): 80
herbicidal activity against GERPU, found (GERPU; B.87 (carfentrazone-ethyl) 1.75 g/ha, alone or as mixture (composition 1.87)): 80
herbicidal activity against LOLMU found (LOLMU; a.i. g/ha: I.1 7.8, B.67 125, 20 days after treatment): 0%
herbicidal activity against LOLMU found (LOLMU; a.i. g/ha: I.1 15.6, B.67 125, 20 days after treatment): 0%
herbicidal activity against LOLMU found (LOLMU; a.i. g/ha: I.1 31.25, B.67 125, 20 days after treatment): 0%
herbicidal activity against LOLMU found (LOLMU; [2]): 40%
herbicidal activity against LOLMU found (LOLMU; a.i. g/ha: I.1 62.5, B.67 125, 20 days after treatment): 20%
herbicidal activity against LOLMU found (LOLMU; a.i. g/ha: I.1 62.5, B.77 75, 20 days after treatment): 20%

From US10881110B2, “Herbicidal compositions comprising isoxazolo[5,4-b]pyridines” (BASF SE, priority 2014, dated 2021)
